Data published in PubChem BioAssay (NCI).
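A five-concentration, 48-hour dose response in 96-well plates underlies each endpoint, interpolated linearly between surrounding concentrations. TGI denotes the concentration required for complete inhibition of growth.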

Experiments:
Assay in all cases: NCI anticancer screen, dose series, 48 h
COLO 205 colon = system: COLO 205 colon
M14 melanoma = system: M14 melanoma
MDA-N = system: MDA-N
HCC-2998 colon = system: HCC-2998 colon
NCI-H23 lung = system: NCI-H23 lung
HOP-62 NSCLC = system: HOP-62 NSCLC
HCT-15 colon = system: HCT-15 colon
SF-268 CNS = system: SF-268 CNS
U251 CNS = system: U251 CNS
NCI-H522 lung = system: NCI-H522 lung
UACC-257 melanoma = system: UACC-257 melanoma
RPMI-8226 leukemia = system: RPMI-8226 leukemia
A549 NSCLC = system: A549 NSCLC
IGROV1 ovarian = system: IGROV1 ovarian
HOP-92 NSCLC = system: HOP-92 NSCLC
OVCAR-5 ovarian = system: OVCAR-5 ovarian
OVCAR-8 ovarian = system: OVCAR-8 ovarian
CCRF-CEM leukemia = system: CCRF-CEM leukemia
CAKI-1 renal = system: CAKI-1 renal
HT29 colon = system: HT29 colon
MALME-3M melanoma = system: MALME-3M melanoma
EKVX NSCLC = system: EKVX NSCLC
RXF 393 renal = system: RXF 393 renal
MCF7 breast = system: MCF7 breast
NCI-H460 lung = system: NCI-H460 lung
OVCAR-4 ovarian = system: OVCAR-4 ovarian
UACC-62 melanoma = system: UACC-62 melanoma
HL-60(TB) leukemia = system: HL-60(TB) leukemia
HCT-116 colon = system: HCT-116 colon
SK-MEL-5 melanoma = system: SK-MEL-5 melanoma
786-0 renal = system: 786-0 renal
UO-31 renal = system: UO-31 renal
TK-10 renal = system: TK-10 renal
SNB-75 CNS = system: SNB-75 CNS
SK-OV-3 ovarian = system: SK-OV-3 ovarian
MDA-MB-435 = system: MDA-MB-435
SW-620 colon = system: SW-620 colon
SF-539 CNS = system: SF-539 CNS
PC-3 prostate = system: PC-3 prostate
DU-145 prostate = system: DU-145 prostate
BT-549 breast = system: BT-549 breast
SNB-19 CNS = system: SNB-19 CNS
MOLT-4 leukemia = system: MOLT-4 leukemia
SK-MEL-28 melanoma = system: SK-MEL-28 melanoma
A498 renal = system: A498 renal
ACHN renal = system: ACHN renal
SR leukemia = system: SR leukemia
SN12C renal = system: SN12C renal
KM12 colon = system: KM12 colon
NCI/ADR-RES ovarian = system: NCI/ADR-RES ovarian
K-562 leukemia = system: K-562 leukemia
OVCAR-3 ovarian = system: OVCAR-3 ovarian
MDA-MB-231 breast = system: MDA-MB-231 breast
NCI-H226 lung = system: NCI-H226 lung
LOX IMVI melanoma = system: LOX IMVI melanoma
SF-295 CNS = system: SF-295 CNS
T-47D breast = system: T-47D breast
SK-MEL-2 melanoma = system: SK-MEL-2 melanoma
HS 578T breast = system: HS 578T breast

## COCOc1ccc(C(=O)C(C)c2ccc(OCOC)cc2OCOC)c(O)c1 (stereo not drawn)
COLO 205 colon
  TGI: > 100 µM
M14 melanoma
  TGI: > 100 µM
MDA-N
  TGI: > 100 µM
HCC-2998 colon
  TGI: > 100 µM
NCI-H23 lung
  TGI: > 100 µM
HOP-62 NSCLC
  TGI: > 100 µM
HCT-15 colon
  TGI: > 100 µM
SF-268 CNS
  TGI: > 100 µM
U251 CNS
  TGI: > 100 µM
NCI-H522 lung
  TGI: > 100 µM
UACC-257 melanoma
  TGI: > 100 µM
RPMI-8226 leukemia
  TGI: > 100 µM
A549 NSCLC
  TGI: > 100 µM
IGROV1 ovarian
  TGI: > 100 µM
HOP-92 NSCLC
  TGI: > 100 µM
OVCAR-5 ovarian
  TGI: > 100 µM
OVCAR-8 ovarian
  TGI: > 100 µM
CCRF-CEM leukemia
  TGI: > 100 µM
CAKI-1 renal
  TGI: > 100 µM
HT29 colon
  TGI: > 100 µM
MALME-3M melanoma
  TGI: > 100 µM
EKVX NSCLC
  TGI: > 100 µM
RXF 393 renal
  TGI: > 100 µM
MCF7 breast
  TGI: > 100 µM
NCI-H460 lung
  TGI: > 100 µM
OVCAR-4 ovarian
  TGI: > 100 µM
UACC-62 melanoma
  TGI: > 100 µM
HL-60(TB) leukemia
  TGI: > 100 µM
HCT-116 colon
  TGI: > 100 µM
SK-MEL-5 melanoma
  TGI: > 100 µM
786-0 renal
  TGI: > 100 µM
UO-31 renal
  TGI: > 100 µM
TK-10 renal
  TGI: > 100 µM
SNB-75 CNS
  TGI: > 100 µM
SK-OV-3 ovarian
  TGI: > 100 µM
MDA-MB-435
  TGI: > 100 µM
SW-620 colon
  TGI: > 100 µM
SF-539 CNS
  TGI: > 100 µM
PC-3 prostate
  TGI: > 100 µM
DU-145 prostate
  TGI: > 100 µM
BT-549 breast
  TGI: > 100 µM
SNB-19 CNS
  TGI: > 100 µM
MOLT-4 leukemia
  TGI: > 100 µM
SK-MEL-28 melanoma
  TGI: > 100 µM
A498 renal
  TGI: > 100 µM
ACHN renal
  TGI: > 100 µM
SR leukemia
  TGI: > 100 µM
SN12C renal
  TGI: > 100 µM

## Cc1nc2c(=S)[nH]ncc2[nH]1
KM12 colon
  TGI: > 100 µM
COLO 205 colon
  TGI: > 100 µM
M14 melanoma
  TGI: > 100 µM
MDA-N
  TGI: > 100 µM
HCC-2998 colon
  TGI: > 100 µM
NCI-H23 lung
  TGI: > 100 µM
NCI/ADR-RES ovarian
  TGI: > 100 µM
HOP-62 NSCLC
  TGI: > 100 µM
HCT-15 colon
  TGI: > 100 µM
K-562 leukemia
  TGI: > 100 µM
U251 CNS
  TGI: > 100 µM
NCI-H522 lung
  TGI: > 100 µM
UACC-257 melanoma
  TGI: > 100 µM
RPMI-8226 leukemia
  TGI: > 100 µM
A549 NSCLC
  TGI: > 100 µM
OVCAR-3 ovarian
  TGI: > 100 µM
IGROV1 ovarian
  TGI: > 100 µM
HOP-92 NSCLC
  TGI: > 100 µM
OVCAR-5 ovarian
  TGI: > 100 µM
OVCAR-8 ovarian
  TGI: > 100 µM
CCRF-CEM leukemia
  TGI: > 100 µM
CAKI-1 renal
  TGI: > 100 µM
HT29 colon
  TGI: > 100 µM
MALME-3M melanoma
  TGI: > 100 µM
EKVX NSCLC
  TGI: > 100 µM
MDA-MB-231 breast
  TGI: > 100 µM
MCF7 breast
  TGI: > 100 µM
NCI-H226 lung
  TGI: > 100 µM
LOX IMVI melanoma
  TGI: > 100 µM
SF-295 CNS
  TGI: > 100 µM
OVCAR-4 ovarian
  TGI: > 100 µM
UACC-62 melanoma
  TGI: > 100 µM
HL-60(TB) leukemia
  TGI: > 100 µM
HCT-116 colon
  TGI: > 100 µM
T-47D breast
  TGI: > 100 µM
SK-MEL-5 melanoma
  TGI: > 100 µM
786-0 renal
  TGI: > 100 µM
UO-31 renal
  TGI: > 100 µM
TK-10 renal
  TGI: > 100 µM
SNB-75 CNS
  TGI: > 100 µM
SK-OV-3 ovarian
  TGI: > 100 µM
MDA-MB-435
  TGI: > 100 µM
SW-620 colon
  TGI: > 100 µM
SF-539 CNS
  TGI: > 100 µM
PC-3 prostate
  TGI: > 100 µM
BT-549 breast
  TGI: > 100 µM
SNB-19 CNS
  TGI: > 100 µM
SK-MEL-28 melanoma
  TGI: > 100 µM
SK-MEL-2 melanoma
  TGI: > 100 µM
A498 renal
  TGI: > 100 µM
ACHN renal
  TGI: > 100 µM
SN12C renal
  TGI: > 100 µM

## O=C(CP(c1ccccc1)c1ccccc1)c1cccc(C(=O)CP(c2ccccc2)c2ccccc2)c1
KM12 colon
  TGI: > 100 µM
COLO 205 colon
  TGI: > 100 µM
M14 melanoma
  TGI: > 100 µM
MDA-N
  TGI: > 100 µM
HCC-2998 colon
  TGI: > 100 µM
NCI/ADR-RES ovarian
  TGI: > 100 µM
HOP-62 NSCLC
  TGI: > 100 µM
HCT-15 colon
  TGI: > 100 µM
K-562 leukemia
  TGI: > 100 µM
SF-268 CNS
  TGI: > 100 µM
U251 CNS
  TGI: > 100 µM
UACC-257 melanoma
  TGI: > 100 µM
RPMI-8226 leukemia
  TGI: 67.4 µM
A549 NSCLC
  TGI: > 100 µM
IGROV1 ovarian
  TGI: > 100 µM
OVCAR-5 ovarian
  TGI: > 100 µM
OVCAR-8 ovarian
  TGI: > 100 µM
CCRF-CEM leukemia
  TGI: > 100 µM
CAKI-1 renal
  TGI: > 100 µM
HT29 colon
  TGI: > 100 µM
EKVX NSCLC
  TGI: > 100 µM
MDA-MB-231 breast
  TGI: > 100 µM
RXF 393 renal
  TGI: > 100 µM
MCF7 breast
  TGI: > 100 µM
NCI-H226 lung
  TGI: > 100 µM
SF-295 CNS
  TGI: > 100 µM
NCI-H460 lung
  TGI: > 100 µM
OVCAR-4 ovarian
  TGI: > 100 µM
UACC-62 melanoma
  TGI: > 100 µM
HL-60(TB) leukemia
  TGI: 42.8 µM
HCT-116 colon
  TGI: > 100 µM
T-47D breast
  TGI: 94.8 µM
SK-MEL-5 melanoma
  TGI: > 100 µM
786-0 renal
  TGI: > 100 µM
UO-31 renal
  TGI: 50.8 µM
TK-10 renal
  TGI: > 100 µM
SNB-75 CNS
  TGI: > 100 µM
SK-OV-3 ovarian
  TGI: > 100 µM
MDA-MB-435
  TGI: > 100 µM
SW-620 colon
  TGI: > 100 µM
SF-539 CNS
  TGI: > 100 µM
PC-3 prostate
  TGI: > 100 µM
DU-145 prostate
  TGI: > 100 µM
HS 578T breast
  TGI: > 100 µM
SNB-19 CNS
  TGI: > 100 µM
MOLT-4 leukemia
  TGI: 48 µM
SK-MEL-28 melanoma
  TGI: > 100 µM
SK-MEL-2 melanoma
  TGI: > 100 µM
ACHN renal
  TGI: > 100 µM
SR leukemia
  TGI: 61.5 µM
SN12C renal
  TGI: > 100 µM

## CN1C(=O)c2c(ccc3c2OCO3)C2C(O)Cc3cc4c(cc3C21)OCO4 (stereo not drawn)
KM12 colon
  TGI: 21.6 µM
COLO 205 colon
  TGI: 14.4 µM
M14 melanoma
  TGI: > 100 µM
MDA-N
  TGI: 5.56 µM
HCC-2998 colon
  TGI: 64.4 µM
NCI-H23 lung
  TGI: > 100 µM
NCI/ADR-RES ovarian
  TGI: 8.28 µM
HCT-15 colon
  TGI: 24.7 µM
K-562 leukemia
  TGI: 60.2 µM
SF-268 CNS
  TGI: > 100 µM
U251 CNS
  TGI: > 100 µM
NCI-H522 lung
  TGI: 9.28 µM
RPMI-8226 leukemia
  TGI: > 100 µM
A549 NSCLC
  TGI: > 100 µM
OVCAR-3 ovarian
  TGI: > 100 µM
IGROV1 ovarian
  TGI: 8.85 µM
HOP-92 NSCLC
  TGI: > 100 µM
OVCAR-5 ovarian
  TGI: > 100 µM
OVCAR-8 ovarian
  TGI: 22.9 µM
CCRF-CEM leukemia
  TGI: 9.74 µM
CAKI-1 renal
  TGI: 81.7 µM
HT29 colon
  TGI: 10.1 µM
EKVX NSCLC
  TGI: 60.9 µM
MDA-MB-231 breast
  TGI: 18.3 µM
MCF7 breast
  TGI: > 100 µM
NCI-H226 lung
  TGI: 5.93 µM
LOX IMVI melanoma
  TGI: > 100 µM
SF-295 CNS
  TGI: 4.63 µM
NCI-H460 lung
  TGI: > 100 µM
OVCAR-4 ovarian
  TGI: > 100 µM
UACC-62 melanoma
  TGI: > 100 µM
HL-60(TB) leukemia
  TGI: 6.3 µM
HCT-116 colon
  TGI: > 100 µM
SK-MEL-5 melanoma
  TGI: > 100 µM
786-0 renal
  TGI: 37.3 µM
UO-31 renal
  TGI: > 100 µM
TK-10 renal
  TGI: > 100 µM
SNB-75 CNS
  TGI: 5.13 µM
SK-OV-3 ovarian
  TGI: 8.37 µM
SW-620 colon
  TGI: > 100 µM
SF-539 CNS
  TGI: 16.8 µM
PC-3 prostate
  TGI: > 100 µM
DU-145 prostate
  TGI: 43.1 µM
HS 578T breast
  TGI: > 100 µM
BT-549 breast
  TGI: > 100 µM
SNB-19 CNS
  TGI: > 100 µM
MOLT-4 leukemia
  TGI: 20 µM
SK-MEL-28 melanoma
  TGI: > 100 µM
SK-MEL-2 melanoma
  TGI: 8.44 µM
A498 renal
  TGI: 9.29 µM
ACHN renal
  TGI: > 100 µM
SN12C renal
  TGI: > 100 µM
